# Laboratory results from patent US6756200B2, “Aberrantly methylated genes as markers of breast malignancy” (The Johns Hopkins University School of Medicine, priority 2001, dated 2004).
# Entries after “also recorded” stand apart in the source; their conditions may differ.
# Assays:
# Format in all cases: cell-based, human
# [1] = system: WT1; test: WT1 expression by RT-PCR after treatment of breast cancer cell lines with 5-aza-dC or TSA
# Text: (§1) Cell lines and finite life span cultures Cell lines were obtained from ATCC (Rockville, Md.) and grown according to conditions specified. Also utilized were three independent cultures of finite life span human mammary epithelial cells (HMEC): 16637 (Clonetics, Walkersville, Md.) and 1-26, 3-14 (kindly provided by Dr. Steve Ethier, Univ. Michigan, Ann Arbor, Mich.).
# RT-PCR for WT1 mRNA Methods for RNA extraction and RT-PCR are known to those of skill in the art. The sequences of the primers used are as follows: for amplifying the 555 bp region surrounding WT1 exon 5, 5′-[…]-3′ (sense, nucleotides 882-901; Q ID NO:1) and 5′-[…]-3′ (antisense, nucleotides 1416-1437; SEQ ID NO:2); for amplifying the 382 bp region surrounding the KTS insert, 5′-[…]-3′ (sense, nucleotides 1320-1339; SEQ ID NO:3) and 5′-[…]-3′ (antisense, nucleotides 1685-1702; SEQ ID NO:4). Amplification was performed using a hot-start protocol: samples were heated to 94° C. for 4 minutes and then cooled to 80° C. prior to the addition of Taq polymerase (RedTaq, Sigma, St. Louis, Mo.). Samples were then heated to 94° C. for 30 seconds followed by either 50° C. for 30 seconds (for the KTS primers) or 56° C. for 30 seconds (for the Exon 5 primers) and then 72° C. for 1 minute for 40 cycles. PCR products were resolved by electrophoresis, using a 2% agarose gel for the exon 5-splice variants and a 12% polyacrylamide gel to resolve the KTS insert variants. Co-amplification of the ribosomal RNA 36B4 was performed as an internal control using the following primers: 5′-[…]-3′ (sense; SEQ ID NO:5) and 5′-[…]-3′ (antisense; SEQ ID NO:6).
# [2] = system: MDA-MB-231 cells; test: Growth inhibition (%) by cell counting with Trypan Blue
# Text: (§2) Cell cultures Human epithelial mammary cells (HEMC) from reduction mammoplasty including three mortal strains, 184, 48R and 172R, and two immortal strains, 184A1 and 184B5, were obtained and cultured according to the protocols designed by Dr Martha Stampfer (see the HMEC Homepage, http://www.lbl.gov/*mrgs/index.htlm) using Clonetics (Walkersville, Md., USA) reagents. Human breast cancer cell lines were maintained in Dulbecco's modified Eagle's medium (GIBCO) (Hs578t,MCF-7, MDA-MB-231 and T47D) or IMEM medium (Biofluids) (MDA-MB-435, MDA-MB-468, ZR751) with 5% fetal calf serum (FCS). For drug treatments, exponentially growing cells were seeded in 10 cm^2 plates at a density of 36105 cells/plate or in 6-well plates at 16105 cells/well. Cells were allowed to attach overnight before the addition of the appropriate concentration of 5-Aza-2′ deoxycytidine (5-Aza-CdR) (Sigma), Trichostatin A (TSA) (Sigma) or RA(Sigma). When reduction of retinoids was required, cells were treated in either medium with 0.5% FCS or charcoal-dextran stripped FCS (Hyclone). At the indicated time points, both attached and detached cells were harvested, counted with Trypan Blue (Life Technologies) and processed for DNA or RNA extraction. 5-Aza-CdR was dissolved in 0.45% NaCl containing 10 mM sodium phosphate (pH 6.8). Trichostatin A and all-trans-retinoic acid (RA) (Sigma) were reconstituted in absolute ethanol (solvent).
# [3] = system: cyclin D2; test: Cyclin D2 mRNA re-expression by RT-PCR after 5-aza-dC or TSA; conditions: MDAMB231 and MCF7 cells
# Procedure: RT-PCR. […] PCR was performed using the primers [NT] (sense; SEQ ID NO:15) and [NT] […] (sense; SEQ ID NO: 17) and [NT] […] (sense; SEQ ID NO:19) and [NT] antisense; SEQ ID NO:20).
# [4] = system: σ; test: σ gene expression by RT-PCR after 5-aza-dC; conditions: Hs578t and MDA-MB-435 cells; 0.75 μM 5-aza-dC for 3 days
# Procedure: (§3) Cells were seeded at a density of 2×10^6 cells per 100-mm plate.
# RT-PCR. […] PCR was performed using the σ-specific primers 5′-[…]-3′ (SEQ ID NO:41) and 5′-[…]-3′ (SEQ ID NO:42) using buffer conditions described herein. The PCR conditions were: 1 cycle of 95° C. for 5 min; 30 cycles of 60° C. for 45s, 72° C. for 45s and 95° C. for 45s. PCR samples were resolved by electrophoresis in a 2% agarose gel.
# [5] = system: HOXA5; test: HOXA5 mRNA re-expression by RT-PCR after 5-aza-dC; conditions: MDA-MB-231 cells; 0.75 μM 5-aza-dC
# Procedure: RT-PCR was performed using primers: 5′ […]-3′ (sense; SEQ ID NO:75) and 5′[…]-3′ (antisense; SEQ ID NO:76).
# [6] = system: σ CpG island; test: Methylation-specific PCR of the σ CpG island after 5-aza-dC; conditions: Hs578t and MDA-MB-435 cells; 0.75 μM 5-aza-dC for 3 days
# Procedure: Methylation-specific PCR (MSP). One μg genomic DNA was treated with sodium bisulfite as described in (Herman, et al. (1996) Proc. Natl. Acad. Sci. USA 93, 9821-9826), and was analyzed by MSP using a primer set that covered CG dinucleotide numbers 3, 4, 8 and 9. Primers specific for methylated DNA: 5′-[…]-3′ (sense; SEQ ID NO:37) and 5′-[…]-3′ (antisense; SEQ ID NO:38), and primers specific for unmethylated DNA: 5′-[…]-3′ (sense; SEQ ID NO:39) and 5′-[…]-3′(antisense; SEQ ID NO:40) yielded a 105-107 bp PCR product. The PCR conditions were as follows: 1 cycle of 95° C. for 5 min; 31 cycles of 95° C. for 45s, 56° C. for 30s and 72° C. for 30s; and 1 cycle of 72° C. for 4 min.
# as §3
# [7] = system: 14.3.3σ; test: 14.3.3σ expression in the same treated samples; conditions: same samples: MDA-MB-231 and MCF-7 cells treated with 5-aza-deoxyC or TSA
# Text: as §1
# [8] = system: cyclin D2 promoter; test: Methylation-specific PCR of the cyclin D2 promoter after 5-aza-dC; conditions: MDAMB231 and MCF7 cells; 0.75 μM 5-aza-dC
# Procedure: Methylation-specific PCR (MSP). One μg genomic DNA or the 50 ul extract of microdissected cells was treated with sodium bisulfite as described in Herman J G, (1996), and was analyzed by MSP using primer sets located within the CpG-rich island in the cyclin D2 promoter. Primers specific for unmethylated DNA were 5′-[…]-3′ (sense; SEQ ID NO:21) and 5′-[…]-3′ (antisense; SEQ ID NO:22) and yielded a 223 base-pairs PCR product. Primers specific for methylated DNA were 5′-[…]-3′ (sense; SEQ ID NO:23) and 5′-[…]-3′ (antisense; SEQ ID NO:24) and yielded a 276 base-pair PCR product. The PCR conditions were as follows: 1 cycle of 95° C. for 5 min; 35 cycles of 95° C. for 30s, 55° C. for 30s and 72° C. for 45s; and 1 cycle of 72° C. for 5 min.
# [9] = system: MCF-7 cells; test: Pon A induction of HOXA5 in MCF-7 clones with ecdysone-inducible HOXA5: p53 pathway and apoptosis
# Text: Immunoblot Analysis: Proteins were visualized by Western analysis and 10% SDS-PAGE. The primary antibodies [anti-HOXA5 (HOXA5-2, BABCO), anti-p53 (AB-6, Oncogene Science), or anti-β-actin (AC-15, Sigma), anti-p21 (15091A, Pharmingen), anti-Mdm2 (65101A, Pharmingen), anti-PARP (AB-2, Oncogene Sciences), anti-dynein (Zymed) and anti- Na+, K+-ATPase (Ed Benz, Johns Hopkins) (also used as loading controls, with actin)] were used at 1:1000 dilution.
# To test this possibility, breast cancer cells, MCF-7 and ZR75.1, which harbor wildtype p53 genes, were transfected with the full length HOXA5 and the ΔHOXA5 (homeodomain-deleted) expression plasmids and tested for colony-forming ability. No surviving colonies were obtained from HOXA5-transfected cells whereas those transfected with ΔHOXA5 and the vector control generated colonies with equal efficiency. To obtain stable cultures that could express HOXA5, clones of MCF-7 cells were generated in which the HOXA5 gene was placed under the control of an ecdysone-inducible promoter. Within 3 hours after induction of HOXA5 expression by the ecdysone analog, Ponasterone A (Pon A), the levels of p53 mRNA rose by 2-fold.
# [10] = system: RAR β; test: RAR β expression by RT-PCR after drug treatment
# Procedure: Human breast cancer cell lines were maintained in Dulbecco's modified Eagle's medium (GIBCO) (Hs578t,MCF-7, MDA-MB-231 and T47D) or IMEM medium (Biofluids) (MDA-MB-435, MDA-MB-468, ZR751) with 5% fetal calf serum (FCS). For drug treatments, exponentially growing cells were seeded in 10 cm^2 plates at a density of 36105 cells/plate or in 6-well plates at 16105 cells/well. […] When reduction of retinoids was required, cells were treated in either medium with 0.5% FCS or charcoal-dextran stripped FCS (Hyclone). At the indicated time points, both attached and detached cells were harvested, counted with Trypan Blue (Life Technologies) and processed for DNA or RNA extraction. 5-Aza-CdR was dissolved in 0.45% NaCl containing 10 mM sodium phosphate (pH 6.8). Trichostatin A and all-trans-retinoic acid (RA) (Sigma) were reconstituted in absolute ethanol (solvent).
# [11] = system: RAR β2 promoter; test: Methylation of RAR β2 promoter CpG island (Southern blotting, MSP) after drug treatment; conditions: MCF7 cells; in the presence of RA
# [12] = system: breast cancer cell lines; test: Growth inhibition of a panel of breast cancer cell lines by RA; conditions: T47D, MDA-MB-435, MCF7 and ZR75-1 cell lines; 1 μM RA, 48 h
# Text: as §2, with “Trichostatin A and all-trans-retinoic acid (RA) (Sigma) were reconstituted in absolute ethanol (solvent).” left out
# [13] = 0.4 mM 5-Aza-CdR and/or 1 μM RA
# [14] = 2 days, 100 ng/ml TSA and/or RA
structure (smiles),measurement,setting,value
"Nc1ncn([C@H]2C[C@H](O)[C@@H](CO)O2)c(=O)n1 [5-aza-dC, 5-aza-2′-deoxycytidine]",WT1 expression,"[1]; MCF-7 cells, 0.75 μM 5-aza-dC, listed as 5-aza-deoxyC",not seen; also recorded: did not cause WT1 expression
same,WT1 expression,"[1]; MDA-MB-231 cells, 0.75 μM 5-aza-dC, listed as 5-aza-deoxyC",results in re-expression of the gene; also recorded: resulted in WT1 expression
same,growth inhibition,[2]; [13],63%
same,cyclin D2 mRNA expression (RT-PCR),[3]; 0.75 μM 5-aza-dC,restored
same,σ gene expression (RT-PCR),[4],reactivation of gene expression
same,expression of HOXA5 mRNA,[5],re-initiated
same,methylation of the σ CpG rich region (MSP),[6],demethylation
same,expression of 14.3.3σ,[7],restored expression
same,cyclin D2 promoter methylation (MSP),[8],partially demethylated
"CC(C)CC[C@@H](O)[C@](C)(O)[C@H]1CC[C@@]2(O)C3=CC(=O)[C@@H]4C[C@@H](O)[C@@H](O)C[C@]4(C)[C@H]3CC[C@]12C [Pon A, Ponasterone A]",DNA laddering,[9],observed
same,levels of Bax protein,[9],not accompanied by a detectable change
same,"p53, p21, Mdm2 and HOXA5 induction (Western blotting)",[9],2-5 fold
same,"cells with micronucleus formation, membrane blebbing and ghost cell features",[9]; acridine orange staining,70%
same,cell death,[9]; after 48 hours,80-90%
same,poly (ADP-ribose) polymerase cleavage,[9]; by 12 hours,underwent cleavage
same,cell morphology,[9]; by 24 hours,cell shrinkage
same,levels of p53 mRNA,[9]; within 3 hours after induction,2 fold
"CC1=C(/C=C/C(C)=C/C=C/C(C)=C/C(=O)O)C(C)(C)CCC1 [RA, all-trans-retinoic acid]",growth inhibition,[2]; [13],52%
same,growth inhibition,[2]; [14],52%
same,RAR β expression,"[10]; T47D, MDA-MB-435, MCF7 and ZR75-1 cell lines, 1 μM RA, 48 h",induction of RAR β expression
same,methylation at RAR β2,[11],persistence of methylation
same,growth inhibition,[12],growth inhibition
"CC(/C=C/C(=O)NO)=C\[C@@H](C)C(=O)c1ccc(N(C)C)cc1 [TSA, Trichostatin A]",WT1 expression,"[1]; MDA-MB-231 and MCF-7 cells (either cell line), 100 ng/ml TSA",no effect; also recorded: nor did TSA restore expression
same,growth inhibition,[2]; [14],77%
same,cyclin D2 mRNA expression (RT-PCR),[3]; 100 ng/ml TSA,re-expression
same,RAR β mRNA expression (RT-PCR),"[10]; MDA-MB-231 cells, 2 days, 100 ng/ml TSA with 1 μM RA",can reactivate RAR β expression
same,expression of 14.3.3σ,[7],restored expression
